What was measured:
[1] = system: Wild-type N2 C. elegans worms; assay: Nile Red staining of fat accumulation in wild-type N2 C. elegans; assay type: in vivo; conditions: 100 μM; for fat mobilization (fat content of the worms): L1 worms, vehicle DMSO
H4IIEC3 cells = assay: Oxidation of 14C-palmitate in H4IIEC3 cells; assay type: cell-based; conditions: resveratrol 10 μM in 1% DMSO, AICAR 500 μM in H2O, metformin 1 mM in H2O; 4 hours; vehicle = 1
Method: (§1) Oxidation of 14C-palmitate to acid-soluble products (modified from H4IIEC3 cells [Witters, L. A. and B. E. Kemp, Insulin activation of acetyl-CoA carboxylase accompanied by inhibition of the 5′-AMP-activated protein kinase. J Biol Chem, 1992. 267(5): p. 2864-7] and HepG2 cells were maintained as described above. Cells (10^6 cells/T25) were seeded in a T25 flask one day prior to the experiment. On the day of the experiment cells were washed with assay buffer (114 mM NaCl, 4.7 mM KCL, 1.2 mM KH2PO4, 1.2 mM MgSO4, 11 mM glucose) before labeling with 14C-palmitate (0.4 μCi/ml) in presence of vehicle, or resveratrol (10 μM), or AICAR (500 μM) for 4 hours.
(§2) At the end of incubation, the cap of each T25 flask was replaced with a stopper and a 1′×1.5″ Whatman filter paper soaked with 250 μl 2N NaOH. Each flask was injected with 2 ml of 6N HCL, placed in a horizontal position for 10 minutes and left standing overnight. The next morning, 1 ml H2O and 61 μl NaOH were added to a glass scintillation vial and the filter papers from each T25 flask were transferred to their respective vial. 10 ml Aquasol was added to each vial and allowed to stand for 2 hours, after which the vials were vortexed to dissolve the […] and counted in the scintillation counter. The results were expressed as nmols/h/106 cells and shown as the fold effect. ^14CO2 production ranged from 0.3 to 1.8 nmols/h/106 cells. The experiment was repeated three times.

HepG2 cells = assay: Oxidation of 14C-palmitate in HepG2 cells; assay type: cell-based; conditions: resveratrol 10 μM in 1% DMSO, AICAR 500 μM in H2O, metformin 1 mM in H2O; 4 hours; vehicle = 1
Method: as §1, §2

C. elegans worms = assay: Nile Red fat staining in C. elegans fed RNAi bacteria; assay type: in vivo; conditions: RNA inactivation of TOC1.8 (AMPK homolog) or F41E7.3 (COT homolog)
Method: The role of Sir2.1 in fat metabolism was shown in C. elegans worms in which Sir2.1 was RNA inactivated. Young adult worms were grown to adulthood in the presence of bacteria that carry RNAi vector alone or vector encoding Sir2.1 RNAi (R11A8.4), as described below. These worms were grown in the presence or absence of resveratrol, and stained with Nile-Red as described below.
We have examined the C. elegans database and found two gene products that are highly related to mammalian AMPK, TOC1.8 and Par2.3; five genes encoding homologs of CPT-1 and one gene encoding a homolog of COT. C. elegans worms were incubated with bacteria carrying RNAi vector alone, or interfering RNA against TOC1.8 or F41E7.3, a C. elegans homologue of COT in the presence or absence of AICAR. Fat accumulation was visualized with Nile-Red, as described below. […] Thus, AICAR/AMPK signaling to fatty acid oxidation is conserved in worms and mammalian cells.
The effect of TOC1.8 and COT inactivation was then investigated in C. elegans incubated with resveratrol. C. elegans worms were incubated with bacteria carrying RNAi vector alone, or a vector encoding TOC1.8 or COT interfering RNA in the presence or absence of resveratrol. Fat accumulation was visualized with Nile-Red, as described below.
RNAi plates were seeded with HTT5 E. coli carrying either the L4440 RNAi vector control or the specific RNAi clones T01C8.1, AMPK; R11A8.4, sir-2.1; or F41E7.6 COT in the presence or absence of 100 μM resveratrol. Young adults were transferred to plates containing the appropriate vector, Nile Red stain and drug then maintained at 25° C. Nile Red staining was assessed 24 hours after resveratrol treatment by UV microscopy.
HT115 E. Coli carrying the RNAi vector, L4440, were used for maintenance feeding. Bacteria containing experimental RNAi clones were cultured in 10 ml Luria Broth media containing 50 μg/ml ampicillin for 18 hours. 350 μl of each culture was spotted to a 60 mm dish containing NGM agar, 6 mM IPTG and 25 μg/ml carbenicillin. After overnight incubation (at room temp), Nile Red was added on top of each dish to a final concentration of 0.05 μg/ml along with the experimental compounds indicated in the figure legends. Nile Red staining was assessed after 24 hrs by UV microscopy. For each batch of RNAi clones tested, L4440 (vector alone) was included. […] All phenotypes were confirmed by at least three additional rounds of testing.

[2] = system: phosphorylation of AMPK on threonine 172 and of ACC on serine 79; assay: Western analysis of AMPK and ACC phosphorylation in CHO-HIR cells; assay type: cell-based; conditions: resveratrol 12.5, 25 or 50 μM; AICAR 500 μM (positive control); 30 minutes; serum-free overnight
Method: CHO-HIR mammalian cells were washed in PBS and incubated overnight in serum-free DMEM before treatment with 500 μM AICAR (positive control) or 12.5 μM, 25 μM or 50 μM resveratrol. Cells were harvested after 30 minutes and lysates were immediately boiled in SDS and subjected to Western analysis with site-specific antibodies. Phosphorylation of AMPK at Thr172 indicates activation of the kinase. Active AMPK phosphorylates and inactivates ACC at serine 79.
CHO cells were also treated with 500 μM AICAR (positive control), DMSO, 100 nM, 500 nM, 2.5 μM, 12.5 μM, 25 μM, or 50 μM resveratrol and subject to Western Blot analysis as described above. Western blots were stripped and re-probed for phosphorylated (active) AMPK, total AMPK, phosphorylated acetyl CoA carboxylase (ACC), which is the downstream target of AMPK, and tubulin, which served as a loading control.

[3] = system: Wild-type N2 C. elegans worms; assay: Nile Red staining of fat accumulation in wild-type N2 C. elegans; assay type: in vivo; conditions: 0, 1 or 10 mM, overnight
Method: Wild-type N2 C. elegans worms were grown on OP50 bacteria and exposed overnight to vehicle (0.1% ethanol) alone or with 10, 50 or 100 μM of resveratrol (in ethanol). Fat accumulation was visualized with Nile Red staining, as described further below and in Ashrafi K, et al. Nature 421:268-27 (2003).
Synchronized starved L1 worms were grown in the presence of Nile Red. Strains were grown on NGM plates at 25° C. for approximately 48 hours until the young adult stage was reached. 20-30 young adult worms were then washed 2× with M9 buffer and transferred to new NGM/Nile red experimental plates that contained either OP50 or HTT5 E. coli carrying the L4440 RNAi control vector. For experiments comparing the effect of nicotinamide and resveratrol on fat mobilization, OP50 plates were coated with vehicle alone or Nicotinamide (in PBS), or vehicle alone and Resveratrol (in Ethanol or DMSO).
Resveratrol (Indofine #024964) was dissolved in Ethanol or DMSO to a 10 mM stock solution. Resveratrol was added to 60 mm NGM agar dishes containing either OP50 or RNAi expressing bacteria (HT115) to a final concentration of 10 μm, 50 μm, and 100 μM. Nile Red was also added to plates to a final concentration of 0.05 μg/ml. Nicotinamide (Supelco #47865-U) was diluted in PBS including Nile Red and added to […] dishes containing OP50 to a final concentration of 1 mM, 10 mM, or 100 mM.
Nile Red: Nile Red Powder (Sigma #N-3013) was dissolved in acetone at 500 μg/ml, diluted in 1× Phosphate Buffered Saline (PBS) including appropriate drug and applied to surface of Nematode Growth Media (NGM) plates previously seeded with OP50 or RNAi bacteria, at a final concentration of 0.05 μg/ml. Fat content was monitored and recorded by fluorescence microscopy.
Nile Red Staining was visualized by using a Nikon TE2000S microscope equipped with a CY3 filter (emission 535-685 nm). Images were captured using a SPOT RT monochrome digital camera attached to the Nikon Microscope with SPOT RT software v3.5. All Nile red images were acquired using identical settings and exposure times and then changed to red palette.

[4] = system: TNF-alpha treated adipocytes; assay: Radioactive glucose uptake in TNF-alpha treated, insulin resistant adipocytes; assay type: cell-based; conditions: resveratrol 5 μM or 15 μM; roziglitazone 4 μM (positive control); with TNF-alpha
Method: Adipocytes were treated with TNF-alpha to induce insulin resistance as described in Kabayama et al., Glycobiology 15:21-29 (2005) and Wu et al., Mol. Cell 3:151-8 (1999).

CSc1ccc(/C=C/c2cc(O)cc(O)c2)cc1 [3,5-dihydroxy-4′-thiomethyl-trans-stilbene]
fat staining ([1]; 24 hours, control 1% v/v DMSO): Significant reduction of fat staining

NC(=O)c1ncn([C@@H]2O[C@H](CO)[C@@H](O)[C@H]2O)c1N [AICAR, 5-aminoimidazole-4-carboxamide-1-beta-D-ribofuranoside, reference compound]
14C-CO2 production (Fold Effect) (H4IIEC3 cells): 2.3 Fold Effect | 14C-CO2 production (Fold Effect) (HepG2 cells): 5 Fold Effect | fat mobilization (C. elegans worms): inhibits AICAR-stimulated fat mobilization | phosphorylation of AMPK (threonine 172) and ACC (serine 79) [2]: stimulates phosphorylation of AMPK and ACC

CN(C)C(=N)N=C(N)N [Metformin]
14C-CO2 production (Fold Effect) (H4IIEC3 cells): 2 Fold Effect | 14C-CO2 production (Fold Effect) (HepG2 cells): 3.5 Fold Effect

O=C(/C=C/c1ccc(O)c(O)c1)c1ccc(O)cc1O [butein, 3,4,2′,4′-Tetrahydroxychalcone]
fat mobilization (fat content of the worms) ([1]; 48 hours): stimulate fat mobilization

C(=C/c1ccccc1)/c1ccccc1 [cis-stilbene, cis-Stilbene]
fat staining ([1]; L1 animals, 48 hours, control 2.5% v/v DMSO): No significant effect on worm fat staining

O=c1c(O)c(-c2ccc(O)c(O)c2)oc2cc(O)ccc12 [fisetin, 3,7,3′,4′-Tetrahydroxyflavone]
fat mobilization (fat content of the worms) ([1]; 48 hours): stimulate fat mobilization

NC(=O)c1cccnc1 [nicotinamide, reference compound]
fat accumulation [3]: concentration dependent increase in fat accumulation

Oc1cc(O)cc(/C=C/c2ccc(O)c(O)c2)c1 [piceatannol, 3,5,3′,4′-Tetrahydroxy-trans-stilbene]
fat mobilization (fat content of the worms) ([1]; 48 hours): stimulate fat mobilization

O=c1c(O)c(-c2ccc(O)c(O)c2)oc2cc(O)cc(O)c12 [quercetin, 3,5,7,3′,4′-Pentahydroxyflavone]
fat mobilization (fat content of the worms) ([1]; 48 hours): stimulate fat mobilization

CN(CCOc1ccc(CC2SC(=O)NC2=O)cc1)c1ccccn1 (centres unmarked) [roziglitazone, reference compound]
radioactive glucose uptake / insulin sensitivity [4]: increases the uptake of radioactive glucose

From patent US9597347B2, “Compositions for treating obesity and insulin resistance disorders” (President and Fellows of Harvard College, priority 2003, dated 2017)
